For 34 molecules, IC50 and inhibition results are on record in EP2272817A1, “PAI-1 INHIBITOR” (Institute of Medicinal Molecular Design, Inc., priority 2008, dated 2009).

This assay deals with recombinant human PAI-1 (Homo sapiens, UniProt P05121). Put plainly: Test Example 2: Human PAI-1 Inhibitory Activity (pH 7.4 HEPES buffer, 10 minutes incubation with two-chain tPA). Details: purchased Molecular Innovations, Inc. Particulars: for inhibition at 0.1 µM / inhibition at 0.3 µM / inhibition at 1 µM / inhibition at 3 µM / inhibition at 10 µM / inhibition at 25 µM: read-out: Inhibition Rate of PAI-1 Activity (%). Format: biochemical. As to the method: 0.1 M HEPES, 0.1 M NaCl. 1 mM EDTA. 0.1 % Polyethylene glycol 8,000 (Hampton Research Corporation),
2 mM Dimethyldecylphoshine oxide [Apo-10] (Fluka Corporation)

Chain of recombinant human PAI-1 (P05121 24-402): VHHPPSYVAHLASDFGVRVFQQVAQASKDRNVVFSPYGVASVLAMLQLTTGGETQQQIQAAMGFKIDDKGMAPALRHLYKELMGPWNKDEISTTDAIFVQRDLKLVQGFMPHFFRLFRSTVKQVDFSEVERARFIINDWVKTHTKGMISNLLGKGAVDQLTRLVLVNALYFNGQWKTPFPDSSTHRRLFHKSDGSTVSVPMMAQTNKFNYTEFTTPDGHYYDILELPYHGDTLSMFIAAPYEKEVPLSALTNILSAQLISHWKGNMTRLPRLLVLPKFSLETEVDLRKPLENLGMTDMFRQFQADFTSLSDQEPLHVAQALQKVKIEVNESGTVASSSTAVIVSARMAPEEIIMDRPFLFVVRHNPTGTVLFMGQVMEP

Usually IC50 stands for the concentration at which inhibition is half-maximal. As a reminder, the inhibition is the relative decrease from the control value, in per cent. For `CCCCCCCc1ccc(-c2ccc(OC(F)(F)F)cc2)cc1N(CCCCc1ccccc1)C(=O)C(=O)O` [Compound 371], the inhibition at 0.1 µM turned out to be 10%, the inhibition at 0.3 µM came out at 17%, the inhibition at 1 µM was 93% and the inhibition at 3 µM was determined as 91%. The IC50 (concentration that inhibits 50 % of the human PAI-1 activity, calculated from the inhibition rates of Test Example 2, read-out: IC50) was 690 nM.
With `CC(C)[C@@H]1CC[C@@H](C)C[C@H]1Oc1ccc(-c2ccc(OC(F)(F)F)cc2)cc1N(CCCCc1ccccc1)C(=O)C(=O)O` [Compound 639], the inhibition at 0.1 µM turned out to be 6%, the inhibition at 0.3 µM turned out to be 12%, the inhibition at 1 µM worked out at 91% and the inhibition at 3 µM was determined as 87%.
For `CCCN(CC(=O)O)c1cc(-c2ccc(OC(F)(F)F)cc2)ccc1Oc1ccc(C(C)(C)C)cc1` [Compound 435], the inhibition at 0.1 µM came to 12%, the inhibition at 0.3 µM was found to be 29%, the inhibition at 1 µM was 81% and the inhibition at 3 µM was 98%.
On to `O=C(O)C(=O)N(CCCCc1ccccc1)c1cc(-c2ccc(OC(F)(F)F)cc2)ccc1OC1CCCC1` [Compound 658], for which the inhibition at 0.1 µM was 9%, the inhibition at 0.3 µM was 20%, the inhibition at 1 µM stood at 97% and the inhibition at 3 µM is greater than 99%.
As for `COc1ccc(-c2ccc(OCC(=O)O)c(Oc3ccc(C(C)(C)C)cc3)c2)cc1` [Compound 445], the inhibition at 0.1 µM is 0%, the inhibition at 0.3 µM was 1%, the inhibition at 1 µM was determined as 12% and the inhibition at 3 µM worked out at 50%.
The matching figures for `O=C(O)C(=O)N(Cc1ccc2ccccc2c1)c1ccc(-c2ccc(OC(F)(F)F)cc2)cc1` [Compound 661]: 6%, 11%, 27% and greater than 99%.
For `O=C(O)C(=O)N(Cc1ccc(-c2ccc(OC(F)(F)F)cc2)cc1)c1ccccc1-c1ccccc1` [Compound 632], the inhibition at 0.1 µM was found to be 0%, the inhibition at 0.3 µM was determined as 9%, the inhibition at 1 µM was 31% and the inhibition at 3 µM stood at 97%.
Turning to `CC(C)(C)c1ccc(N(Cc2ccc(-c3ccccc3)cc2)C(=O)C(=O)O)cc1` [Compound 612], the inhibition at 1 µM was found to be 7%, the inhibition at 3 µM worked out at 25%, the inhibition at 10 µM worked out at 84% and the inhibition at 25 µM is greater than 99%.
As for `O=C(O)CCc1ccc(-c2ccc(OC(F)(F)F)cc2)cc1OCCCOCc1ccccc1` [Compound 488], the inhibition at 0.1 µM worked out at 0%, the inhibition at 0.3 µM was 10%, the inhibition at 1 µM came out at 36% and the inhibition at 3 µM is 91%.
The matching figures for `CCCCCOc1ccc(-c2ccc(OC(F)(F)F)cc2)cc1N(CCCSc1ccccc1)C(=O)C(=O)O` [Compound 357]: 0%, 2%, 69% and greater than 99%.
As to `CCCCCOc1cc(-c2ccc(OC(F)(F)F)cc2)ccc1CN(CC(=O)O)c1ccc(C(C)(C)C)cc1` [Compound 649], the inhibition at 0.1 µM amounted to 10%, the inhibition at 0.3 µM is 64%, the inhibition at 1 µM was 96% and the inhibition at 3 µM was 97%.
As for `CN(C(=O)c1ccc(N(Cc2ccc(C(C)(C)C)cc2)C(=O)C(=O)O)cc1)c1ccc(OC(F)(F)F)cc1` [Compound 618], the inhibition at 1 µM was 0%, the inhibition at 3 µM was found to be 24%, the inhibition at 10 µM amounted to 78% and the inhibition at 25 µM is greater than 99%.
As to `O=C(O)C(=O)N(Cc1ccc(-c2ccc(OC(F)(F)F)cc2)cc1)c1ccccc1` [Compound 611], the inhibition at 1 µM was found to be 5%, the inhibition at 3 µM came out at 13%, the inhibition at 10 µM was found to be 45% and the inhibition at 25 µM was determined as 81%.
With `CCCCCCC(Oc1cc(-c2ccc(OC(F)(F)F)cc2)ccc1Oc1ccccc1)C(=O)O` (centres unmarked) [Compound 322], the inhibition at 0.1 µM was determined as 0%, the inhibition at 0.3 µM is 4%, the inhibition at 1 µM turned out to be 69% and the inhibition at 3 µM was found to be 92%.
On to `O=C(O)C(=O)N(CCCCc1ccccc1)c1cc(-c2ccc(OC(F)(F)F)cc2)ccc1OCCCCC(F)(F)F` [Compound 381], for which the inhibition at 0.1 µM is 12%, the inhibition at 0.3 µM came out at 13%, the inhibition at 1 µM turned out to be 48% and the inhibition at 3 µM is greater than 99%.
For the molecule `CC(C)(C)c1ccc(Oc2ccc(-c3ccc(OC(F)(F)F)cc3)cc2N(CCCCc2ccccc2)C(=O)C(=O)O)cc1` [Compound 636], the inhibition at 0.1 µM came to 2%, the inhibition at 0.3 µM was 21%, the inhibition at 1 µM was 72% and the inhibition at 3 µM worked out at 81%.
As for `CC(C)(C)c1ccc(Oc2cc(-c3ccc(OC(F)(F)F)cc3)ccc2NCC(=O)O)cc1` [Compound 442], the inhibition at 0.1 µM came to 1%, the inhibition at 0.3 µM came to 4%, the inhibition at 1 µM came out at 83% and the inhibition at 3 µM was greater than 99%.
The matching figures for `CC(C)(C)c1ccc(Sc2cc(-c3ccc(OC(F)(F)F)cc3)ccc2C(=O)C(=O)O)cc1` [Compound 548]: 0%, 16%, 95% and greater than 99%.
In the case of `CCCCCOc1ccc(-c2ccc(OC(F)(F)F)cc2)cc1N(CC(=O)O)C(=O)CCCc1ccccc1` [Compound 682], the inhibition at 0.1 µM is 2%, the inhibition at 0.3 µM came to 5%, the inhibition at 1 µM is 32% and the inhibition at 3 µM came to 98%.
For the molecule `Cc1cc(C)cc(Oc2cc(-c3ccc(C(C)(C)C)cc3)ccc2/C=C/C(=O)O)c1` [Compound 494], the inhibition at 0.1 µM turned out to be 9%, the inhibition at 0.3 µM is 24%, the inhibition at 1 µM was 87% and the inhibition at 3 µM came to 92%.
As for `CCCCCOc1ccc(-c2ccc(OC(F)(F)F)cc2)cc1CN(C(=O)C(=O)O)c1ccc(C(C)(C)C)cc1` [Compound 645], the inhibition at 0.1 µM amounted to 6%, the inhibition at 0.3 µM turned out to be 26%, the inhibition at 1 µM was determined as 95% and the inhibition at 3 µM was greater than 99%.
`O=C(O)C(=O)N(CCCCc1ccccc1)c1cc(-c2ccc(OC(F)(F)F)cc2)ccc1OCCC(F)(F)F` [Compound 383]: the inhibition at 0.1 µM was determined as 2%, the inhibition at 0.3 µM turned out to be 6%, the inhibition at 1 µM came to 32% and the inhibition at 3 µM worked out at 98%.
Regarding `CC(C)(C)c1ccc(Oc2ccc(-c3ccc(C(C)(C)C)cc3)cc2OCC(=O)O)cc1` [Compound 453], the inhibition at 0.1 µM turned out to be 4%, the inhibition at 0.3 µM was 15%, the inhibition at 1 µM is 96% and the inhibition at 3 µM was greater than 99%.
With `CC(C)(C)c1ccc(C(=O)c2cc(-c3ccc(OC(F)(F)F)cc3)ccc2OCC(=O)O)cc1` [Compound 549], the inhibition at 0.1 µM stood at 23%, the inhibition at 0.3 µM came to 22%, the inhibition at 1 µM was determined as 84% and the inhibition at 3 µM was greater than 99%.
As for `CCCCCCCOc1cc(-c2ccc(OC(F)(F)F)cc2)ccc1N(CCCCc1ccccc1)C(=O)C(=O)O` [Compound 386], the inhibition at 0.1 µM worked out at 5%, the inhibition at 0.3 µM was determined as 18%, the inhibition at 1 µM was greater than 99% and the inhibition at 3 µM was greater than 99%.
As for `CC(C)(C)c1ccc(Oc2cc(-c3ccc(C(C)(C)C)cc3)ccc2/C=C/C(=O)O)cc1` [Compound 495], the inhibition at 0.1 µM was found to be 8%, the inhibition at 0.3 µM stood at 64%, the inhibition at 1 µM came out at 98% and the inhibition at 3 µM is greater than 99%.
Turning to `CCCCCCCCCCOc1ccc(-c2ccc(OC(F)(F)F)cc2)cc1N(CCCCc1ccccc1)C(=O)C(=O)O` [Compound 365], the inhibition at 0.1 µM was 41%, the inhibition at 0.3 µM is 97%, the inhibition at 1 µM was 97% and the inhibition at 3 µM amounted to 92%.
Take `CC(C)(C)c1ccc(Oc2cc(OCC(=O)O)cc(-c3ccc(OC(F)(F)F)cc3)c2)cc1` [Compound 427]: the inhibition at 0.1 µM worked out at 1%, the inhibition at 0.3 µM is 27%, the inhibition at 1 µM is 62% and the inhibition at 3 µM was found to be 97%.
For `CC(C)(C)c1ccc(CN(C(=O)C(=O)O)c2ccc(N3CCN(c4ccccc4)CC3)cc2)cc1` [Compound 627], the inhibition at 1 µM was found to be 0%, the inhibition at 3 µM was found to be 14%, the inhibition at 10 µM stood at 57% and the inhibition at 25 µM is greater than 99%.
As to `O=C(O)CCCCCCOc1ccc(-c2ccc(OC(F)(F)F)cc2)cc1N(CCCCc1ccccc1)C(=O)C(=O)O` [Compound 633], the inhibition at 0.1 µM was found to be 11%, the inhibition at 0.3 µM is 11%, the inhibition at 1 µM was determined as 39% and the inhibition at 3 µM stood at 61%.
Turning to `CCCCCOc1cc(N(CCCCc2ccccc2)C(=O)C(=O)O)ccc1-c1ccc(OC(F)(F)F)cc1` [Compound 654], the inhibition at 0.1 µM is 4%, the inhibition at 0.3 µM stood at 19%, the inhibition at 1 µM is greater than 99% and the inhibition at 3 µM is greater than 99%.
`CC(C)(C)c1ccc(-c2ccc(OCC(=O)O)c(Oc3cccc(C(C)(C)C)c3)c2)cc1` [Compound 465]: the inhibition at 0.1 µM was found to be 10%, the inhibition at 0.3 µM stood at 17%, the inhibition at 1 µM is 87% and the inhibition at 3 µM was 98%.
As to `CC(C)(C)c1ccc(Oc2cc(-c3ccc(OC(F)(F)F)cc3)ccc2CCCC(=O)O)cc1` [Compound 527], the inhibition at 0.1 µM is 6%, the inhibition at 0.3 µM worked out at 36%, the inhibition at 1 µM was 98% and the inhibition at 3 µM is greater than 99%.
Take `CC(C)(C)c1ccc(Oc2cc(-c3ccc(OC(F)(F)F)cc3)ccc2C(=O)O)cc1` [Compound 434]: the inhibition at 0.1 µM was found to be 14%, the inhibition at 0.3 µM was 8%, the inhibition at 1 µM was 66% and the inhibition at 3 µM is greater than 99%.
